Consider 17 compounds from US10590121B2, “Kinase inhibitors and methods for making and using” (Rigel Pharmaceuticals, Inc., priority 2017, dated 2020).

Experiment [1] concerns LPS induced IL-23 (p19/p40) in DC cells differentiated from human PBMC. Kind of experiment: IL23-p19 ELISA, dendritic cells (DC differentiated from human PBMC), IFNγ primed, LPS stimulated. Particulars: human PBMC-derived dendritic cells, 1 μg/ml LPS, 18 hours, 10 pt. The experiment is classed as cell-based. The method, then: Compound Screening Using DC Cells
1. Differentiation of PBMC's to DC Cells:
Human PBMC cells (400 million) obtained from the vendor were transferred into a T-175 flask containing 15 ml RPMI media (10% FBS) and incubate for 2 hours at 37° C. After 2 hours, the media including floating cells was aspirated out carefully and 12 ml of fresh RPMI media (10% FBS) containing GMCSF (100 ng/ml) and IL4 (20 ng/ml) was added, and the flask was kept in a 37° C. incubator for 7 days.
After 3 days, fresh GMCSF (100 ng/ml) and IL4 (20 ng/ml) were added to the flask and the incubation continued. After 7 days, the fully differentiated cells were harvested by spinning down (1200 rpm/5 min) and aspirating the media. The cells were suspended in fresh RPMI media (10% FBS) containing 50 ng/ml IFNγ (1000 U/ml) and then plated (50K/well in 100 μl) onto a white clear bottom 96 well plate and left in a 37° C. incubator for 24 hours.
2. Addition of Compounds:
After 24 hours incubation, 100 μl of RPMI media was added containing 2× concentrated test compound per well to the above cell-culture media (final concentration becomes 1×) and the plates were pre-incubated for 1 hour at 37° C. before stimulating with LPS.
After 1 hour compound pre-incubation, 10 μl per well of 20× concentrated LPS solution in RPMI media was added to give a final concentration of 1 μg/ml. The mixture was shaken and incubated the plates at 37° C. for an additional 18 hours.
155 μl of the supernatant was harvested from each well carefully (without the tip touching the bottom of the well) and to the remaining 50 μl/well of the cell culture plate was added 50 μl of Cell Titer Glo reagent. The mixture was incubated for 1-2 minutes on a shaker and the plate was read for luminescence intensity to determine the compound cytotoxicity. The cell culture supernatant collected above was used to carry out IL23 ELISA (65 μl-Supernatant) and IL10 ELISA (90 μl-Supernatant) as described below.
Human IL-23 (p19/p40) ELISA Protocol (e-Biosciences)
To 10.5 ml PBS add 50 μl of anti-IL23 (p19) was added capture antibody (2.5 μg/ml). The mixture was mixed well and 100 μl of the coating solution was added to each well of the 96 well white plates from Pierce. The wells were covered and incubated overnight at 4° C.
The anti-IL23 (p19)-antibody-coated plates were washed 2× using TBST (use plate washer) and blocked using 200 μl of 0.5% Casein for 1.5-2 hours at room temperature with shaking.
The plates were washed 2× using TBST and the supernatant was transferred (65 μl/well) to the above pre-blocked/IL23 (p19)-antibody-coated 96 well plate, and incubated at room temperature for 1.5 hours with shaking.
The plates were washed 4× using TBST (plate washer) and 100 μl/well detection antibody solution prepared from 2 μl of biotin labeled anti-IL-12 (p40/p70) antibody in 11 ml 1% BSA/PBS solution (1-5000 dilution) was added. The plates were incubated for 1 hour with shaking at room temperature.
Again, the plates were washed 4× with TBST and 100 μl of HRP labeled Streptavidin (R&D Systems) solution (10 μl/10 ml 1% BSA solution) was added, and the plates were incubated at room temperature for another 45 minutes with shaking.
After 45 minutes, the plates were washed with TBST 4× and 100 ul/well Super Signal ELISA Pico Chemiluminescent Substrate from Pierce (3.5 ml A+3.5 ml B+3.5 ml MQ water) was added. The plates were shaken for 1-2 minutes then read on a plate reader.
Background: ELISA stands for enzyme-linked immunosorbent assay.

Experiment [2] deals with LPS induced IL23p19 in THP-1 cells. Kind of experiment: LPS Induced IL23p19 in THP-1 Cells (with IFNγ Primed) Assay. The following applies: Homo sapiens; THP-1 cells primed with IFNγ 50 ng/mL, 1 μg/mL LPS, 18 hours, 10 pt; read-out: IL23-p19 ELISA, THP1-IFNy, LPS, 10 pt EC50. It is filed as cell-based. The source says:
LPS Induced IL23p19 in THP-1 Cells (with IFNγ Primed) Assay
THP-1 Cells (ATCC, Cat # TIB-202), Dimethyl Sulfoxide (DMSO) (Sigma-Aldrich, Cat # D2650), RPMI 1640 (Cellgro, Cat #10-040-CM), Fetal Bovine Serum (Sigma, Cat # F4135), Albumin From Bovine Serum (BSA) (Sigma-Aldrich, Cat # A7906), LPS (Serotype K-235, Sigma, Product Number L 2143), IFNγ (Peprotech, Cat #300-02), Capture antibody: Human IL-23p19 ELISA (e-Bioscience, Cat. #14-7238-85), Detection antibody: Primary Mouse Biotinylated anti-human IL-12 (p40/p70) (e-Bioscience, Cat. #13-7129-85), Secondary HRP-conjugated Streptavidin (R&D Systems, Cat # DY998), 1×PBST Washing Buffer (PBS-Tween tablet) (VWR International, Cat #80058-558), ELISA Blocking Buffer (PBS with 1% BSA), ELISA Dilution Buffer (PBS with 1% BSA), 384 Well Flat-Bottom, MaxiSorp Black Immuno Plates (Thermo Scientific, Cat #12-565-346), 384 Well Flat-Bottom, White Tissue Culture Plates (Thermo Scientific, Cat #12-565-343), Super Signal ELISA Pico Chemiluminescent Substrate (Thermo Scientific, Cat #37070), Cell Titer Glo reagent (Promega, Cat # G7573), Positive control, IKK2VI inhibitor (Calbiochem, Cat #401483), AquaMax 4000 plate washer (Molecular Devices), Luminometer, Wallac Victor2 1420 Multilabel Counter.
On day 1, 50K/well THP-1 cells were seeded and primed with IFNγ (50 ng/mL) in 384-well plates for about 18 hours in RPMI media with 10% FBS. On day 2, the compound was serially diluted in DMSO from 5 mM in 3-fold dilutions, and then diluted 1:125 in RPMI media with 10% FBS. 50 μL/well 2× compound was added to 50 μL/well THP-1 cells (with IFNγ primed) in duplicate in 384 well tissue culture plates. The cells were pre-incubated with compound for 1 hour at 37° C., 5% CO2 before addition of 10 μL/well 11×LPS to give a final concentration of 1 μg/mL LPS. Day 3, after stimulation for 18 hours at 37° C., 5% CO2, the assay plate was centrifuged and 70 μL/well supernatant was harvested. IL-23p19 protein in 70 μL/well of supernatant was measured by sandwich ELISA, and 25 μl/well Cell Titer Glo reagent was added to the remaining cells to measure compound toxicity.
Human IL-23p19 Sandwich ELISA:
Maxisorp immuno ELISA plates were pre-coated with 25 μL/well of anti-IL-23p19 capture antibody (2.5 ug/mL) in PBS overnight at room temperature. After washing with 1×PBST, the plates were blocked using 100 μL/well of 1% BSA in PBS for 2 hours at room temperature. The plates were washed three times with 1×PBST and 70 μL/well supernatant were added. The plates were incubated at room temperature for 2 hours with shaking and washed three times with 1×PBST. 25 μL/well of biotin labeled anti-IL-12 (p40/p70) detection antibody (100 ng/mL) in PBS with 1% BSA was added and the plates were incubated at room temperature for 2 hours with shaking. After washing three times with 1×PBST, 25 μL/well of streptavidin-HRP (1:200) in PBS with 1% BSA was added and the plates were incubated at room temperature for 20 minutes with shaking. The plates were washed three times with 1×PBST and 25 μL/well of Super Signal ELISA Pico Chemiluminescent Substrate were added. The plates were read with a luminometer, and the chemiluminescence values were entered into Athena (Rigel) for curve fitting, EC50 calculation, and database storage.

`CN1CCN(c2ccc(NC(=O)c3cccc(-c4cn[nH]c4)n3)c(N3CCCCC3)c2)CC1` [I-1, N-(4-(4-methylpiperazin-1-yl)-2-(piperidin-1-yl)phenyl)-6-(1H-pyrazol-4-yl)picolinamide]: the EC50 (commonly the midpoint of the concentration-response curve) amounted to 843 nM in experiment [1] and 308 nM in experiment [2].

Turning to `CN1CCN(c2ccc(NC(=O)c3ccc(-c4cn[nH]c4)o3)c(N3CCCCC3)c2)CC1` [I-2, N-(4-(4-methylpiperazin-1-yl)-2-(piperidin-1-yl)phenyl)-5-(1H-pyrazol-4-yl)furan-2-carboxamide], the EC50 in experiment [1] was 120 nM; in experiment [2], 36.8 nM.

Regarding `CN1CCN(c2ccc(NC(=O)c3csc(-c4cn[nH]c4)n3)c(N3CCCCC3)c2)CC1` [I-3, N-(4-(4-methylpiperazin-1-yl)-2-(piperidin-1-yl)phenyl)-2-(1H-pyrazol-4-yl)thiazole-4-carboxamide], the EC50 was determined as 71.2 nM in experiment [1] and 25.9 nM in experiment [2].

With `O=C(Nc1ccc(N2CCOCC2)cc1N1CCC(F)CC1)c1cccc(-c2cn[nH]c2)n1` [I-4, N-(2-(4-fluoropiperidin-1-yl)-4-morpholinophenyl)-6-(1H-pyrazol-4-yl)picolinamide], the results for the EC50 in experiment [1] and in experiment [2] were 3600 nM and 314 nM, respectively.

For the compound `O=C(Nc1ccc(N2CCOCC2)cc1N1CCC(F)CC1)c1ccc(-c2cn[nH]c2)o1` [I-5, N-(2-(4-fluoropiperidin-1-yl)-4-morpholinophenyl)-5-(1H-pyrazol-4-yl)furan-2-carboxamide], the results for the EC50 in experiment [1] and in experiment [2] were 182 nM and 145 nM, respectively.

In the case of `O=C(Nc1ccc(N2CCOCC2)cc1N1CCC(F)CC1)c1csc(-c2cn[nH]c2)n1` [I-6, N-(2-(4-fluoropiperidin-1-yl)-4-morpholinophenyl)-2-(1H-pyrazol-4-yl)thiazole-4-carboxamide], the EC50 in experiment [1] was determined as 114 nM; in experiment [2] it was 76.4 nM.

On to `CN1CCN(c2ccc(NC(=O)c3cccc(-c4cn[nH]c4)n3)c(N3CCC(F)CC3)c2)CC1` [I-7, N-(2-(4-fluoropiperidin-1-yl)-4-(4-methylpiperazin-1-yl)phenyl)-6-(1H-pyrazol-4-yl)picolinamide], for which the EC50 in experiment [1] turned out to be 689 nM; in experiment [2], 880 nM.

As for `CN1CCN(c2ccc(NC(=O)c3ccc(-c4cn[nH]c4)o3)c(N3CCC(F)CC3)c2)CC1` [I-8, N-(2-(4-fluoropiperidin-1-yl)-4-(4-methylpiperazin-1-yl)phenyl)-5-(1H-pyrazol-4-yl)furan-2-carboxamide], the EC50 was 182 nM in experiment [1] and 63.7 nM in experiment [2].

On to `CN1CCN(c2ccc(NC(=O)c3csc(-c4cn[nH]c4)n3)c(N3CCC(F)CC3)c2)CC1` [I-9, N-(2-(4-fluoropiperidin-1-yl)-4-(4-methylpiperazin-1-yl)phenyl)-2-(1H-pyrazol-4-yl)thiazole-4-carboxamide], for which the values for the EC50 in experiment [1] and in experiment [2] were 67.2 nM and 36 nM, respectively.

As to `O=C(Nc1ccc(N2CCOCC2)cc1N1CCC(O)CC1)c1cccc(-c2cn[nH]c2)n1` [I-10, N-(2-(4-hydroxypiperidin-1-yl)-4-morpholinophenyl)-6-(1H-pyrazol-4-yl)picolinamide], the EC50 in experiment [1] came to 1740 nM; in experiment [2] it was 303 nM.

Consider `O=C(Nc1ccc(N2CCOCC2)cc1N1CCC(O)CC1)c1ccc(-c2cn[nH]c2)o1` [I-11, N-(2-(4-hydroxypiperidin-1-yl)-4-morpholinophenyl)-5-(1H-pyrazol-4-yl)furan-2-carboxamide], for which the EC50 in experiment [1] was determined as 162 nM; in experiment [2] it was 134 nM.

In the case of `O=C(Nc1ccc(N2CCOCC2)cc1N1CCC(O)CC1)c1csc(-c2cn[nH]c2)n1` [I-12, N-(2-(4-hydroxypiperidin-1-yl)-4-morpholinophenyl)-2-(1H-pyrazol-4-yl)thiazole-4-carboxamide], the EC50 in experiment [1] was determined as 60 nM; in experiment [2], 84.1 nM.

Regarding `O=C(Nc1ccc(N2CCOCC2)cc1N1CCOCC1)c1cccc(-c2cn[nH]c2)n1` [I-13, N-(2,4-dimorpholinophenyl)-6-(1H-pyrazol-4-yl)picolinamide], the EC50 was 14400 nM in experiment [1] and 1730 nM in experiment [2].

For the compound `O=C(Nc1ccc(N2CCOCC2)cc1N1CCC(F)(F)CC1)c1cccc(-c2cn[nH]c2)n1` [I-19, N-(2-(4,4-difluoropiperidin-1-yl)-4-morpholinophenyl)-6-(1H-pyrazol-4-yl)picolinamide], in experiment [2], the half-maximal effective concentration (EC50) was 2520 nM.

As for `COc1ccc(N2CCOCC2)cc1NC(=O)c1ccc(-c2cn[nH]c2)o1` [I-40, N-(2-methoxy-5-morpholinophenyl)-5-(1H-pyrazol-4-yl)furan-2-carboxamide], in experiment [2], the EC50 came out at 3380 nM.

On to `O=C(Nc1ccc(CCN2CCOCC2)cc1N1CCCCC1)c1ccc(-c2cn[nH]c2)o1` [I-55, N-(4-(2-morpholinoethyl)-2-(piperidin-1-yl)phenyl)-5-(1H-pyrazol-4-yl)furan-2-carboxamide], for which, in experiment [2], the EC50 came to 9780 nM.

Consider `O=C(Nc1cc(N2CCOCC2)ccc1N1CCCCC1)c1cccc(-c2cn[nH]c2)n1` [I-75, N-(5-morpholino-2-(piperidin-1-yl)phenyl)-6-(1H-pyrazol-4-yl)picolinamide], for which the EC50 in experiment [2] is 52800 nM.
